Measurements from ChEMBL document CHEMBL1909046, “DrugMatrix in vitro pharmacology data”.

How the values were obtained:
[1] = DRUGMATRIX: Phorbol Ester radioligand binding (ligand: [3H] PDBu); assay type: cell membranes, Mus musculus, ICR, Brain, Membrane; settings: Not Active = under 50% inhibition at 10 µM
Cannabinoid receptor 1 = Cannabinoid receptor 1 (Homo sapiens, UniProt P21554); assay type: cell membranes, Chem-1, Membrane; settings: chem-1; also: in other assays of this panel Not Active means under 50% inhibition at 10 µM
[2] = target: Mitogen-activated protein kinase 3 (Homo sapiens, UniProt P27361); experiment: DRUGMATRIX: Protein Serine/Threonine Kinase, ERK1 enzyme inhibition (substrate: Myelin Basic Protein); parameters: species or system Escherichia coli; settings: Not Active = under 50% inhibition at 10 µM
Melanocortin receptor 4 = Melanocortin receptor 4 (Homo sapiens, UniProt P32245); assay type: cell membranes, Membrane; settings: hek293; also: in other assays of this panel Not Active means under 50% inhibition at 10 µM
Estrogen receptor beta = Estrogen receptor beta (Homo sapiens, UniProt Q92731); settings: sf9; also: in other assays of this panel Not Active means under 50% inhibition at 10 µM
Glucocorticoid receptor = target: T1, Glucocorticoid receptor (Homo sapiens, UniProt P04150); settings: hela s3; also: in other assays of this panel Not Active means under 50% inhibition at 10 µM
T1 sequence (P04150 whole entry): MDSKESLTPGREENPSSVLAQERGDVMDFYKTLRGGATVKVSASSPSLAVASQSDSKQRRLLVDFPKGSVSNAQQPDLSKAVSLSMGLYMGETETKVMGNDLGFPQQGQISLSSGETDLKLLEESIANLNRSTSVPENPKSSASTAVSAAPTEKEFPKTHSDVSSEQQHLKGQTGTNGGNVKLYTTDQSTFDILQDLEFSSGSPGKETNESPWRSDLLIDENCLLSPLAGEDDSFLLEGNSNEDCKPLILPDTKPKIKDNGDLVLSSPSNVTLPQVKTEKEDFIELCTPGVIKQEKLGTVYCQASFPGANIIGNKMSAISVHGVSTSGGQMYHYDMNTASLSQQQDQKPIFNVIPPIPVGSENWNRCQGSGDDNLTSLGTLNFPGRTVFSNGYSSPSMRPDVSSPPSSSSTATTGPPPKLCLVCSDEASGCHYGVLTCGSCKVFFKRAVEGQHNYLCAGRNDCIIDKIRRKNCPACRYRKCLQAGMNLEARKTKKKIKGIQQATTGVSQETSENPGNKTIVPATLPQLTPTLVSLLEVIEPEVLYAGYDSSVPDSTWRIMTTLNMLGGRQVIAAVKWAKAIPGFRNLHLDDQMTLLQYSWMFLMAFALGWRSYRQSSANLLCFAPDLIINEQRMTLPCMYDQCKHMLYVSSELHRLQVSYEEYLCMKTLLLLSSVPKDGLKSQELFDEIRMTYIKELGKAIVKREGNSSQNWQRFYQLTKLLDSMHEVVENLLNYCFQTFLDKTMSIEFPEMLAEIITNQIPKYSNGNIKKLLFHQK

[3] = target: T2, C-X-C chemokine receptor type 2 (Homo sapiens, UniProt P25025); assay type: cell membranes, Membrane; settings: cho-k1; also: in other assays of this panel Not Active means under 50% inhibition at 10 µM
T2 sequence (P25025 whole entry): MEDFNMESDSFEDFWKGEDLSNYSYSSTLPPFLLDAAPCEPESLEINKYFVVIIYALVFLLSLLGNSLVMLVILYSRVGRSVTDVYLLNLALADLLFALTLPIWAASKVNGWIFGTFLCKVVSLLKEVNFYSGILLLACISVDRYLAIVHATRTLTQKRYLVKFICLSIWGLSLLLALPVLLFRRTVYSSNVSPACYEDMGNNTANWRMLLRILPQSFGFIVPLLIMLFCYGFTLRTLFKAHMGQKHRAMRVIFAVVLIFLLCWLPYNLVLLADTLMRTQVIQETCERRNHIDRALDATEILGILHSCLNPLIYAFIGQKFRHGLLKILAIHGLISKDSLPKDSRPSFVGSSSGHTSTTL

Cannabinoid receptor 1, sequence (P21554 whole entry): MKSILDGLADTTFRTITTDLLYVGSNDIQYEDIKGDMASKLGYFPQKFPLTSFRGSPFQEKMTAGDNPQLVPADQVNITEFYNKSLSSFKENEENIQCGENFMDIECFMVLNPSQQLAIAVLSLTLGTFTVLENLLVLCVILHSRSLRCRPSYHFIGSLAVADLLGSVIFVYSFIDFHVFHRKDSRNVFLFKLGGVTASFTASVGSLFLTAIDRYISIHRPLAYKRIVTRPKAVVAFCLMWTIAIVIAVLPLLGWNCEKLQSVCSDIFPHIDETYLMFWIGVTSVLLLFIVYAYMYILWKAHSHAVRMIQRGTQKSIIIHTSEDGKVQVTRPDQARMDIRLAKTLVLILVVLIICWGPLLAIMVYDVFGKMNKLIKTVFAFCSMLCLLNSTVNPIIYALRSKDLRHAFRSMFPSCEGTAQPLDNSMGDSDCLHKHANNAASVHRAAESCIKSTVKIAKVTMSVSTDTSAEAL
Melanocortin receptor 4, sequence (P32245 whole entry): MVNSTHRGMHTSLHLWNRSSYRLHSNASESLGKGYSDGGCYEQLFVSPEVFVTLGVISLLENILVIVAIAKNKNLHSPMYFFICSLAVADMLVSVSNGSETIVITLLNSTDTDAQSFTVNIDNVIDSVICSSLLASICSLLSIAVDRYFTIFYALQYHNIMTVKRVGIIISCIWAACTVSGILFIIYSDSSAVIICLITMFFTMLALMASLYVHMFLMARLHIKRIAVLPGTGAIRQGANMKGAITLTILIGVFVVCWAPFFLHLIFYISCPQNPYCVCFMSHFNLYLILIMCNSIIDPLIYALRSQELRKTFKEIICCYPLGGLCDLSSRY
Mitogen-activated protein kinase 3, sequence (P27361 whole entry): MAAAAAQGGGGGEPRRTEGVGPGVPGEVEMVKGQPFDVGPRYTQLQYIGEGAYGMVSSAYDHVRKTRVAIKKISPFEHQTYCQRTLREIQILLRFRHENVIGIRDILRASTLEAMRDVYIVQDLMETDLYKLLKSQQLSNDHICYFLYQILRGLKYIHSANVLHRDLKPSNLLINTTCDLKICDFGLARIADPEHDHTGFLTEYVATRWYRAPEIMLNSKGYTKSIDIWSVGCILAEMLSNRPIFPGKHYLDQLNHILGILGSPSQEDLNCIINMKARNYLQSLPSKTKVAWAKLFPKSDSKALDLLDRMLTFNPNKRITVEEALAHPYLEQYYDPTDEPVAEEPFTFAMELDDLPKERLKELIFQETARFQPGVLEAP
Estrogen receptor beta, sequence (Q92731 whole entry): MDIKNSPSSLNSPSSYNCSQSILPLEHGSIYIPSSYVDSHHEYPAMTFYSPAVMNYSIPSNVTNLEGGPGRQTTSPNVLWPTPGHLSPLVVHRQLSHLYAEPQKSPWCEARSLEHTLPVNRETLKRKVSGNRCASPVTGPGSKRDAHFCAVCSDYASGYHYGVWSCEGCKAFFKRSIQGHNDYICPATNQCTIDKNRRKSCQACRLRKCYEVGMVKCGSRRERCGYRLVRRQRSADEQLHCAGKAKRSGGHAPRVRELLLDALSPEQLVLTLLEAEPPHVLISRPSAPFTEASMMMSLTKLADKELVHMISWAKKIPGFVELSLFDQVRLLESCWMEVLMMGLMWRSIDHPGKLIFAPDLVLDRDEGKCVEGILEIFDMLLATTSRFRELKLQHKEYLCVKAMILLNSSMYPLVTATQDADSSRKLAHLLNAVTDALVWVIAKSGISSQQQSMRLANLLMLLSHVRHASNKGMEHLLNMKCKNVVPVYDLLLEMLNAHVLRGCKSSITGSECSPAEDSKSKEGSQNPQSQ

NS(=O)(=O)c1cc(C2(O)NC(=O)c3ccccc32)ccc1Cl (configuration not stated) [CHLORTHALIDONE]
Not Active: IC50 [1] | Ki [1] | IC50 (Cannabinoid receptor 1) | IC50 [2] | IC50 (Melanocortin receptor 4) | IC50 (Estrogen receptor beta) | IC50 (Glucocorticoid receptor) | IC50 [3]

CCN(CC)CCCC(C)Nc1c2ccc(Cl)cc2nc2ccc(OC)cc12 (configuration not stated) [QUINACRINE]
Not Active: IC50 [1] | Ki [1] | IC50 (Cannabinoid receptor 1) | IC50 [2] | IC50 (Melanocortin receptor 4) | IC50 (Estrogen receptor beta) | IC50 (Glucocorticoid receptor) | IC50 [3]

CN1CCC(=C2c3ccccc3CC(=O)c3sccc32)CC1 [KETOTIFEN]
Not Active: IC50 [1] | Ki [1] | IC50 (Cannabinoid receptor 1) | IC50 [2] | IC50 (Melanocortin receptor 4) | IC50 (Estrogen receptor beta) | IC50 (Glucocorticoid receptor) | IC50 [3]

NC(=O)c1cccnc1 [NIACINAMIDE]
Not Active: IC50 [1] | Ki [1] | IC50 (Cannabinoid receptor 1) | IC50 [2] | IC50 (Melanocortin receptor 4) | IC50 (Estrogen receptor beta) | IC50 (Glucocorticoid receptor) | IC50 [3]

C[C@H]1[C@H](NC(=O)/C(=N\OC(C)(C)C(=O)O)c2csc(N)n2)C(=O)N1S(=O)(=O)O [AZTREONAM]
Not Active: IC50 [1] | Ki [1] | IC50 (Cannabinoid receptor 1) | IC50 [2] | IC50 (Melanocortin receptor 4) | IC50 (Estrogen receptor beta) | IC50 (Glucocorticoid receptor) | IC50 [3]

CN1C[C@@H]2C[C@H]1CN2c1cc2c(cc1F)c(=O)c(C(=O)O)cn2C1CC1 [DANOFLOXACIN]
Not Active: IC50 [1] | Ki [1] | IC50 (Cannabinoid receptor 1) | IC50 [2] | IC50 (Melanocortin receptor 4) | IC50 (Estrogen receptor beta) | IC50 (Glucocorticoid receptor) | IC50 [3]

CN1CCCC(CN2c3ccccc3Sc3ccccc32)C1 (configuration not stated) [MEPAZINE]
Not Active: IC50 [1] | Ki [1] | IC50 (Cannabinoid receptor 1) | IC50 [2] | IC50 (Melanocortin receptor 4) | IC50 (Estrogen receptor beta) | IC50 (Glucocorticoid receptor) | IC50 [3]

NCCCNCCSP(=O)(O)O [AMIFOSTINE]
Not Active: IC50 [1] | Ki [1] | IC50 (Cannabinoid receptor 1) | IC50 [2] | IC50 (Melanocortin receptor 4) | IC50 (Estrogen receptor beta) | IC50 (Glucocorticoid receptor) | IC50 [3]

CC[C@]1(O)C[C@@H]2CN(CCc3c([nH]c4ccccc34)[C@@](C(=O)OC)(c3cc4c(cc3OC)N(C)[C@H]3[C@@](O)(C(N)=O)[C@H](O)[C@]5(CC)C=CCN6CC[C@]43[C@@H]65)C2)C1 [VINDESINE]
Not Active: IC50 [1] | Ki [1] | IC50 (Cannabinoid receptor 1) | IC50 [2] | IC50 (Melanocortin receptor 4) | IC50 (Estrogen receptor beta) | IC50 (Glucocorticoid receptor) | IC50 [3]

CN1CCN(c2c(F)cc3c(=O)c(C(=O)O)cn(CCF)c3c2F)CC1 [FLEROXACIN]
Not Active: IC50 [1] | Ki [1] | IC50 (Cannabinoid receptor 1) | IC50 [2] | IC50 (Melanocortin receptor 4) | IC50 (Estrogen receptor beta) | IC50 (Glucocorticoid receptor) | IC50 [3]

CC(C)(C(=O)O)c1ccc(C(O)CCCN2CCC(C(O)(c3ccccc3)c3ccccc3)CC2)cc1 (configuration not stated) [FEXOFENADINE]
Not Active: IC50 [1] | Ki [1] | IC50 (Cannabinoid receptor 1) | IC50 [2] | IC50 (Melanocortin receptor 4) | IC50 (Estrogen receptor beta) | IC50 (Glucocorticoid receptor) | IC50 [3]

NC(=O)c1cccc(N)c1 [3-AMINOBENZAMIDE]
Not Active: IC50 [1] | Ki [1] | IC50 (Cannabinoid receptor 1) | IC50 [2] | IC50 (Melanocortin receptor 4) | IC50 (Estrogen receptor beta) | IC50 (Glucocorticoid receptor) | IC50 [3]

CC(=O)OC[C@H]1O[C@@H](n2ncc(=O)[nH]c2=O)[C@H](OC(C)=O)[C@@H]1OC(C)=O [AZARIBINE]
Not Active: IC50 [1] | Ki [1] | IC50 (Cannabinoid receptor 1) | IC50 [2] | IC50 (Melanocortin receptor 4) | IC50 (Estrogen receptor beta) | IC50 (Glucocorticoid receptor) | IC50 [3]

CCC1=C(C)CN(C(=O)NCCc2ccc(S(=O)(=O)NC(=O)N[C@H]3CC[C@H](C)CC3)cc2)C1=O [GLIMEPIRIDE]
Not Active: IC50 [1] | Ki [1] | IC50 (Cannabinoid receptor 1) | IC50 [2] | IC50 (Melanocortin receptor 4) | IC50 (Estrogen receptor beta) | IC50 (Glucocorticoid receptor) | IC50 [3]

O=C(O)CCCc1cccs1
Not Active: IC50 [1] | Ki [1] | IC50 (Cannabinoid receptor 1) | IC50 [2] | IC50 (Melanocortin receptor 4) | IC50 (Estrogen receptor beta) | IC50 (Glucocorticoid receptor) | IC50 [3]

O=C(O)CCNC(=O)c1ccc(/N=N/c2ccc(O)c(C(=O)O)c2)cc1 [BALSALAZIDE]
Not Active: IC50 [1] | Ki [1] | IC50 (Cannabinoid receptor 1) | IC50 [2] | IC50 (Melanocortin receptor 4) | IC50 (Estrogen receptor beta) | IC50 (Glucocorticoid receptor) | IC50 [3]

O=C(c1ccccc1F)N1CCC(Cc2ccccc2)CC1
Not Active: IC50 [1] | Ki [1] | IC50 (Cannabinoid receptor 1) | IC50 [2] | IC50 (Melanocortin receptor 4) | IC50 (Estrogen receptor beta) | IC50 (Glucocorticoid receptor) | IC50 [3]

COC(=O)Nc1nc2cc(C(=O)c3ccc(F)cc3)ccc2[nH]1 [FLUBENDAZOLE]
Not Active: IC50 [1] | Ki [1] | IC50 (Cannabinoid receptor 1) | IC50 [2] | IC50 (Melanocortin receptor 4) | IC50 (Estrogen receptor beta) | IC50 (Glucocorticoid receptor) | IC50 [3]

COc1ccnc(C[S+]([O-])c2nc3ccc(OC(F)F)cc3[nH]2)c1OC (configuration not stated) [PANTOPRAZOLE]
Not Active: IC50 [1] | Ki [1] | IC50 (Cannabinoid receptor 1) | IC50 [2] | IC50 (Melanocortin receptor 4) | IC50 (Estrogen receptor beta) | IC50 (Glucocorticoid receptor) | IC50 [3]

CCc1ccc(CCOc2ccc(CC3SC(=O)NC3=O)cc2)nc1 (configuration not stated) [PIOGLITAZONE]
Not Active: IC50 [1] | Ki [1] | IC50 (Cannabinoid receptor 1) | IC50 [2] | IC50 (Melanocortin receptor 4) | IC50 (Estrogen receptor beta) | IC50 (Glucocorticoid receptor) | IC50 [3]

CC[C@H]1[C@@H]2C[C@H]3[C@@H]4N(C)c5ccccc5[C@]45C[C@@H]([C@@H]2[C@H]5O)N3[C@@H]1O [AJMALINE]
Not Active: IC50 [1] | Ki [1] | IC50 (Cannabinoid receptor 1) | IC50 [2] | IC50 (Melanocortin receptor 4) | IC50 (Estrogen receptor beta) | IC50 (Glucocorticoid receptor) | IC50 [3]

CNC1=Nc2ccc(Cl)cc2C(c2ccccc2)=[N+]([O-])C1 [CHLORDIAZEPOXIDE]
Not Active: IC50 [1] | Ki [1] | IC50 (Cannabinoid receptor 1) | IC50 [2] | IC50 (Melanocortin receptor 4) | IC50 (Estrogen receptor beta) | IC50 (Glucocorticoid receptor) | IC50 [3]

C[C@@H]1O[C@@H](O[C@H]2C[C@@H](O)[C@]3(CO)[C@H]4[C@H](O)C[C@]5(C)[C@@H](C6=CC(=O)OC6)CC[C@]5(O)[C@@H]4CC[C@]3(O)C2)[C@H](O)[C@H](O)[C@H]1O [OUABAIN]
Not Active: IC50 [1] | Ki [1] | IC50 (Cannabinoid receptor 1) | IC50 [2] | IC50 (Melanocortin receptor 4) | IC50 (Estrogen receptor beta) | IC50 (Glucocorticoid receptor) | IC50 [3]

O=c1c(-c2ccc(O)cc2)coc2cc(O)cc(O)c12 [GENISTEIN]
Not Active: IC50 [1] | Ki [1] | IC50 (Cannabinoid receptor 1) | IC50 [2] | IC50 (Melanocortin receptor 4) | IC50 (Glucocorticoid receptor) | IC50 [3]

CN(C)C(=N)NC(=N)N [METFORMIN]
Not Active: IC50 [1] | Ki [1] | IC50 (Cannabinoid receptor 1) | IC50 [2] | IC50 (Melanocortin receptor 4) | IC50 (Glucocorticoid receptor) | IC50 [3]

C[N+](C)(C)C[C@H](O)CC(=O)[O-] [LEVOCARNITINE]
Not Active: IC50 [1] | Ki [1] | IC50 (Cannabinoid receptor 1) | IC50 [2] | IC50 (Melanocortin receptor 4) | IC50 (Glucocorticoid receptor) | IC50 [3]

CO/N=C(\C(=O)N[C@@H]1C(=O)N2C(C(=O)O)=C(COC(C)=O)CS[C@H]12)c1csc(N)n1 [CEFOTAXIME]
Not Active: IC50 [1] | Ki [1] | IC50 (Cannabinoid receptor 1) | IC50 (Melanocortin receptor 4) | IC50 (Estrogen receptor beta) | IC50 (Glucocorticoid receptor) | IC50 [3]
